Laboratory results reported in paper PMC6329768, “Dinitroimidazoles as bifunctional bioconjugation reagents for protein functionalization and peptide macrocyclization” (Nature Communications, 2019).

Assays:
[1] = Cys-Cys side-chain stapling of unprotected peptides with bis(1,4-dinitroimidazole) linker 5a (bis[(1,4-dinitroimidazol-2-yl)methyl] succinate, 1.0 eq) by cine-substitution at imidazole C5; sodium ascorbate 2.0 mM; conditions: the molecule shown is the open-chain precursor, 100 mM HEPES buffer pH 7.0, 1.0 mM, 25.0 °C
[2] = hydrolytic stability of reagents in PBS buffer pH 7.4 (HPLC); assay type: physicochemical; conditions: 100 mM PBS buffer, pH 7.4, 37 °C, HPLC analysis
Procedure: Stability of N-phenyl maleimide in 100 mM PBS buffer,
pH 7.4 at 37 °C for indicated time before subjected to HPLC analysis.
at 37 °C for indicated time before subjected to HPLC analysis.

[3] = Lys-Lys (or Dap-Dap) side-chain stapling of unprotected peptides with bis(1,4-dinitroimidazole) linker 5a (bis[(1,4-dinitroimidazol-2-yl)methyl] succinate, 1.2 mM), DIEA 4.0 mM; ANRORC ring-opening/ring-closing gives 1-alkyl-4-nitroimidazole linkages; conditions: the molecule shown is the open-chain precursor, DMSO (ca. 84%, with ca. 10% water and 6% MeCN from stock solutions), 1.0 mM, 37.0 °C, 2.0 h
[4] = chemical stability of peptide conjugates under acidic, basic or oxidative conditions (HPLC); assay type: physicochemical; conditions: 10 h, conjugate 0.05 mM, three independent experiments; for stability of conjugate at pH 10.0: aqueous buffer pH 10.0, 37 °C
Procedure: The conversion values represent means ± SDs (standard deviations) of three independent experiments The stability of protein conjugates is a major concern for bioconjugation reagents. […] Next, we investigated the stability of the (4-nitroimidazole)-thiol linkage. Thiol-maleimide and thiol-arylation conjugates are reported to degrade under acidic, basic, or oxidative conditions[25],[30],[31]. We incubated conjugate 1c' in aqueous buffer at pH 2.0, pH 10.0, or in the presence of 10 mM H2O2 for 10 h at 37 °C.
Next, we explored the application of 1,4-DNIms in Lys bioconjugation of peptides. […] HRMS analysis and NMR analysis determined that product 1d is a ε-(4-nitroimidazole)-Lys derivative (Fig. 6a, Supplementary Figs. 28–32). Next, we explored the chemoselectivity of compound 1a in DMSO via incubation with nucleophilic amino acids, including Tyr, Ser, Trp, His, Asp, and Arg. […] To sum up, 1,4-DNIms react specifically with cysteine thiols under neutral aqueous conditions, and modify lysine ε-amines through a distinct mechanism with high selectivity in organic solvents in the absence of thiols by generating stable conjugates.
Supplementary Figure 15. Stability of 4-nitroimidazole-ACA adduct 1c’ (0.05 mM) in buffers at pH 2.0, pH 10.0, or in 10 mM H2O2 at 37 °C for 10 h before subjected to HPLC analysis. Gradient used:isocratic 2% CH3CN for 5 min, then 2% to 90% CH3CN in 25 min, then isocratic 90% CH3CN for 5 min, then 90% to 2% CH3CN in 5 min. Monitor wavelength: 365 nm.
Supplementary Figure 16. Stability of NEM-2a’ conjugate (0.05 mM) in buffers at pH 2.0 and 10.0. NEM-2a’ conjugate was incubated at pH 2.0 and pH 10.0 at 37 °C for 10 h before subjected to HPLC analysis. Gradient used:isocratic 2% CH3CN for 5 min, then 2% to 90% CH3CN in 25 min, then isocratic 90% CH3CN for 5 min, then 90% to 2% CH3CN in 5 min. Monitor wavelength: 254 nm. […]

[5] = solubility in aqueous solutions; assay type: physicochemical
Excerpt: Lysines are rich in natural proteins and usually solvent-exposed on protein surface, therefore representing a major competition.

In the case of `CC(=O)N[C@@H](C)C(=O)N[C@@H](CSc1[nH]c(COC(=O)CCC(=O)OCc2nc([N+](=O)[O-])cn2[N+](=O)[O-])nc1[N+](=O)[O-])C(=O)N[C@@H](C)C(=O)N[C@H](C(=O)N[C@@H](CC(N)=O)C(=O)N[C@@H](CS)C(=O)N[C@@H](C)C(=O)O)[C@@H](C)O` [Ac-Ala-Cys-Ala-Thr-Asn-Cys-Ala-OH], the ring closure, conversion by HPLC ([1]; 31-membered ring, 0.167 h) is reported as 95%.

In the case of `O=C1C=CC(=O)N1c1ccccc1` [N-phenyl maleimide], the “time to complete hydrolysis (yielding the maleamic acid)” value [2] is reported as at most 2 h.

With `CC(=O)N[C@@H](C)C(=O)N[C@@H](Cn1cc([N+](=O)[O-])nc1COC(=O)CCC(=O)OCc1nc([N+](=O)[O-])cn1[N+](=O)[O-])C(=O)N[C@H](C(=O)N[C@H](C(=O)N[C@@H](Cc1ccccc1)C(=O)N[C@@H](CC(N)=O)C(=O)N[C@@H](CC(C)C)C(=O)N[C@@H](Cc1c[nH]c2ccccc12)C(=O)N[C@@H](CN)C(=O)N[C@@H](C)C(=O)O)[C@@H](C)O)[C@@H](C)O` [Ac-Ala-Dap-Thr-Thr-Phe-Asn-Leu-Trp-Dap-Ala-OH] the ring closure, conversion by HPLC ([3]; 36-membered ring) was 95%.

`CC(=O)N[C@@H](C)C(=O)N[C@@H](CCCCn1cc([N+](=O)[O-])nc1COC(=O)CCC(=O)OCc1nc([N+](=O)[O-])cn1[N+](=O)[O-])C(=O)N[C@@H](Cc1ccccc1)C(=O)N[C@@H](CC(N)=O)C(=O)N[C@@H](CC(C)C)C(=O)N[C@@H](Cc1c[nH]c2ccccc12)C(=O)N[C@@H](CCCCN)C(=O)N[C@@H](C)C(=O)O` [Ac-Ala-Lys-Phe-Asn-Leu-Trp-Lys-Ala-OH] showed a ring closure, conversion by HPLC ([3]; 36-membered ring) of 90%.

In the case of `CCN1C(=O)CC(SC[C@H](NC(=O)[C@H](C)NC(C)=O)C(=O)N[C@@H](C)C(=O)O)C1=O` (stereo partly shown) [N-ethyl maleimide conjugate of 2a′], the “stability of conjugate at pH 10.0” value [4] is reported as “complete hydrolysis”.

`N=C(N)NCCC[C@H](NC(=O)[C@H](CSc1[nH]c(COC(=O)CCC(=O)OCc2nc([N+](=O)[O-])cn2[N+](=O)[O-])nc1[N+](=O)[O-])NC(=O)[C@@H](N)Cc1ccccc1)C(=O)NCC(=O)N[C@@H](CC(=O)O)C(=O)N[C@@H](CS)C(=O)O` [H-Phe-Cys-Arg-Gly-Asp-Cys-OH] showed a ring closure, conversion by HPLC ([1]; 31-membered ring, 0.167 h) of 90%.

With `CC(=O)N[C@@H](C)C(=O)N[C@@H](CSc1[nH]c(COC(=O)CCC(=O)OCc2nc([N+](=O)[O-])cn2[N+](=O)[O-])nc1[N+](=O)[O-])C(=O)N[C@@H](C)C(=O)N[C@@H](CCCNC(=N)N)C(=O)NCC(=O)N[C@@H](Cc1c[nH]c2ccccc12)C(=O)NCC(=O)N[C@@H](CS)C(=O)N[C@@H](C)C(=O)O` [Ac-Ala-Cys-Ala-Arg-Gly-Trp-Gly-Cys-Ala-OH] the ring closure, conversion by HPLC ([1]; 37-membered ring, 0.167 h) was 95%.

In the case of `O=S(=O)(c1c(F)c(F)c(F)c(F)c1F)c1c(F)c(F)c(F)c(F)c1F` [pf1, 6,6′-sulfonylbis(1,2,3,4,5-pentafluorobenzene)], the “solubility in aqueous solutions” value [5] is reported as under 50 µM.

For “Ac-Ala-Lys-Ser-Gln-Val-Thr-Phe-Asn-Leu-Trp-Arg-Met-Gln-Lys-Ala-OH”, the ring closure, conversion by HPLC ([3]; 57-membered ring) was 92%.

In the case of `CC(=O)N[C@@H](C)C(=O)N[C@@H](CSc1[nH]c(COC(=O)CCC(=O)OCc2nc([N+](=O)[O-])cn2[N+](=O)[O-])nc1[N+](=O)[O-])C(=O)NCC(=O)N[C@@H](CS)C(=O)N[C@@H](C)C(=O)O` [Ac-Ala-Cys-Gly-Cys-Ala-OH], the ring closure, conversion by HPLC ([1]; 25-membered ring, 0.167 h) is reported as 95%.

`CC(=O)N[C@@H](C)C(=O)N[C@@H](CCCCn1cc([N+](=O)[O-])nc1COC(=O)CCC(=O)OCc1nc([N+](=O)[O-])cn1[N+](=O)[O-])C(=O)N[C@H](C(=O)N[C@@H](Cc1ccccc1)C(=O)N[C@@H](CC(N)=O)C(=O)N[C@@H](CCCCN)C(=O)N[C@@H](C)C(=O)O)[C@@H](C)O` [Ac-Ala-Lys-Thr-Phe-Asn-Lys-Ala-OH] gave a ring closure, conversion by HPLC ([3]; 33-membered ring) of 95%.

Work on `CC(=O)N[C@@H](CC(C)C)C(=O)N[C@H](C(=O)N[C@@H](Cc1ccccc1)C(=O)N[C@@H](CCCCn1cc([N+](=O)[O-])nc1COC(=O)CCC(=O)OCc1nc([N+](=O)[O-])cn1[N+](=O)[O-])C(=O)N[C@@H](Cc1c[nH]cn1)C(=O)N[C@@H](Cc1ccc(O)cc1)C(=O)N[C@@H](Cc1c[nH]c2ccccc12)C(=O)N[C@@H](C)C(=O)N[C@@H](CCC(N)=O)C(=O)N[C@@H](CC(C)C)C(=O)N[C@@H](CCCCN)C(=O)N[C@@H](CO)C(=O)O)[C@@H](C)O` [Ac-Leu-Thr-Phe-Lys-His-Tyr-Trp-Ala-Gln-Leu-Lys-Ser-OH] yielded a ring closure, conversion by HPLC ([3]; 42-membered ring) of 90%.

In the case of `COC(=O)[C@H](C)NC(=O)[C@H](CSc1[nH]cnc1[N+](=O)[O-])NC(=O)[C@H](C)NC(C)=O` [1c], the “stability of conjugate under oxidative conditions” value ([4]; 10 mM H2O2 in Na2CO3 buffer at pH 8.0, 37 °C) is reported as “did not decompose”, the “stability of conjugate at pH 2.0” value ([4]; aqueous buffer pH 2.0, 37 °C) is reported as “did not decompose” and the “stability of conjugate at pH 10.0” value [4] is reported as “did not decompose”.

For `CC(=O)N[C@@H](C)C(=O)N[C@@H](CSc1[nH]c(COC(=O)CCC(=O)OCc2nc([N+](=O)[O-])cn2[N+](=O)[O-])nc1[N+](=O)[O-])C(=O)NCC(=O)N[C@@H](Cc1ccccc1)C(=O)N[C@@H](CCCCN)C(=O)N[C@@H](C)C(=O)N[C@@H](CS)C(=O)NCC(=O)N[C@H](C(=O)N[C@@H](CCCCN)C(=O)O)C(C)C` [Ac-Ala-Cys-Gly-Phe-Lys-Ala-Cys-Gly-Val-Lys-OH], the ring closure, conversion by HPLC ([1]; 34-membered ring, 0.5 min) was 100%.
